We go through 24 molecules from US12187728B2 (Raze Therapeutics, Inc., priority 2015, dated 2025).

One may read the IC50 as the point on the concentration scale where inhibition reaches its midpoint. Read a low IC50 as higher potency.

Some results are limits rather than exact numbers.

In the test the target is T1, Human MTHFD2 (Homo sapiens, UniProt P13995).
T1 construct: residues 36-350 in Uniport ID P13995; His6 (N); made in house; host or cells: E. coli
T1 sequence (P13995 36-350): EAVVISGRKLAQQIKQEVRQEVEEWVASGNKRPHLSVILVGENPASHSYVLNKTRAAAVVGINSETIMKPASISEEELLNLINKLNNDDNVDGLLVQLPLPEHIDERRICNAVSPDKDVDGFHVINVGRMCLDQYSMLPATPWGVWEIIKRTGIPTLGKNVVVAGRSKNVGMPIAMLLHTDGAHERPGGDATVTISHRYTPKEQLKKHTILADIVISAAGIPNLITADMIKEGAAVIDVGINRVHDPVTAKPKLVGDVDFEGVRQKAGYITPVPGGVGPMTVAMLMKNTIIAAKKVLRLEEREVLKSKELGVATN
Description: MTHFD2 Activity Assay (dehydrogenase activity, diaphorase/resazurin coupled fluorescence). The test is classed as biochemical. Particulars: inhibitory activity (IC50 and/or binding constant); 0.2 nM MTHFD2, 11 concentrations. An excerpt: Human MTHFD2 (residues 36-350 in Uniport ID P13995) was expressed as an N-terminal His6 tagged protein and purified in E. coli using nickel capture followed by size-exclusion chromatography.
MTHFD2 dehydrogenase activity oxidizes methylene tetrahyrofolate to methenyl-tetrahydrofolate with the concomitant reduction of NAD to NADH. MTHFD2 dehydrogenase activity was followed by coupling the generation of NADH to diaphorase catalyzed […] of resazurin to fluorescent resorufin. Briefly, control (DMSO) or compound was incubated with 0.2 nM MTHFD2 for 15 minutes in 10.5 μl assay buffer containing 100 mM Hepes, pH 8.0, 5 mM MgCl2, 5 mM KH2PO4, 0.05% BSA, 0.01% Tween-20 in a 384 well Griener, low volume, black plate. 10 μl of substrate buffer containing 70 μM CH2-THF, 1 mM NAD^+, 100 μM Resazurin and 0.42 mg/ml diaphorase was then added to initiate the reaction and the reaction plate was incubated for 30 minutes. 5 μl of 250 mM EDTA was then added to each well to stop the reaction and MTHFD2 activity was quantified by measuring resorufin fluorescence emission at 598 nm following excitation at 525 nm. Activity in positive control wells containing the complete reaction mixture and DMSO alone was set to 100% while activity in negative control wells with the complete reaction mix without MTHFD2 was set to 0%. 11 concentrations of each compound were tested and the fluorescent data at each concentration was normalized to the positive and negative controls and represented as % inhibition. Median inhibitory concentration (IC50) was calculated by fitting % inhibition at each concentration to a 4 parameter logistic fit equation using Graphpad Prizm.
The compound numbers correspond to the compound numbers in Table A (i.e., the example numbers).
A general note: Alamar Blue is a resazurin reagent that responds to reducing activity.
For `Cn1c(Nc2cccnn2)nc2c1c(=O)n(Cc1cc3ccccc3[nH]1)c(=O)n2C` [Example 201, 1-((1H-indol-2-yl)methyl)-3,7-dimethyl-8-(pyridazin-3-ylamino)-1H-purine-2,6(3H,7H)-dione], the concentration for half-maximal inhibition (IC50) was 10 to 1000 nM.

For the molecule `Cn1c(N[C@H]2C[C@H](C(=O)O)C2)nc2c1c(=O)n(Cc1cc3ccccc3[nH]1)c(=O)n2C` [Example 289, (1R,3R)-3-(1-((1H-indol-2-yl)methyl)-3,7-dimethyl-2,6-dioxo-2,3,6,7-tetrahydro-1H-purin-8-ylamino)cyclobutanecarboxylic acid], the IC50 fell in the range of 10 to 1000 nM.

As to `Cn1c(Nc2cccc(CC(=O)O)c2)nc2c1c(=O)n(Cc1ccc(Cl)c(Cl)c1)c(=O)n2C` [Example 287, 2-(3-((1-(3,4-dichlorobenzyl)-3,7-dimethyl-2,6-dioxo-2,3,6,7-tetrahydro-1H-purin-8-yl)amino)phenyl)acetic acid], the half-inhibitory concentration (IC50) was 10 to 1000 nM.

Turning to `Cn1c(N[C@H]2CCC[C@@H]2O)nc2c1c(=O)n(Cc1ccc(Cl)c(Cl)c1)c(=O)n2C` [Example 92, 1-[(3,4-dichlorophenyl)methyl]-8-{[(1S,2S)-2-hydroxycyclopentyl]amino}-3,7-dimethyl-2,3,6,7-tetrahydro-1H-purine-2,6-dione], the IC50 was 10 to 1000 nM.

Regarding `Cn1c(C(N)C(CO)CO)nc2c1c(=O)n(Cc1cc3c(Cl)cccc3[nH]1)c(=O)n2C` (stereo not drawn) [Example 465, 8-[1-amino-3-hydroxy-2-(hydroxymethyl)propyl]-1-[(4-chloro-1H-indol-2-yl)methyl]-3,7-dimethyl-purine-2,6-dione], the half-maximal inhibitory concentration (IC50) was in the range of 10 to 1000 nM.

As to `COCc1cc(Cn2c(=O)c3c(ncn3C)n(C)c2=O)ccc1Cl` [Example 252, 1-(4-chloro-3-(methoxymethyl)benzyl)-3,7-dimethyl-1H-purine-2,6(3H,7H)-dione], the IC50 was > 10000 nM.

`Cn1c(Nc2ccc(C(F)(F)F)nc2)nc2c1c(=O)n(Cc1cc3c(Cl)cccc3[nH]1)c(=O)n2C` [Example 382, 1-((4-chloro-1H-indol-2-yl)methyl)-3,7-dimethyl-8-(6-(trifluoromethyl)pyridin-3-ylamino)-1H-purine-2,6(3H,7H)-dione] returned a 50% inhibitory concentration (IC50) of 10 to 1000 nM.

Turning to `CC(=O)NCCNc1nc2c(c(=O)n(Cc3ccc(Cl)c(Cl)c3)c(=O)n2C)n1C` [Example 22, N-[2-({1-[(3,4-dichlorophenyl)methyl]-3,7-dimethyl-2,6-dioxo-2,3,6,7-tetrahydro-1H-purin-8-yl}amino)ethyl]acetamide], the 50% inhibitory concentration (IC50) was 10 to 1000 nM.

For the molecule `COc1cc(Cn2c(=O)c3c(ncn3C)n(C)c2=O)ccc1Cl` [Example 249, 1-(4-chloro-3-methoxybenzyl)-3,7-dimethyl-1H-purine-2,6(3H,7H)-dione], the IC50 is > 10000 nM.

On to `Cn1c(N[C@H]2CCC[C@H]2N)nc2c1c(=O)n(Cc1cc3c(Cl)cccc3[nH]1)c(=O)n2C` [Example 439, 8-((1S,2R)-2-aminocyclopentylamino)-1-((4-chloro-1H-indol-2-yl)methyl)-3,7-dimethyl-1H-purine-2,6(3H,7H)-dione], for which the 50% inhibitory concentration (IC50) was in the range of 10 to 1000 nM.

Consider `CCOC(=O)[C@H]1C[C@@H](Nc2nc3c(c(=O)n(Cc4ccc(Cl)c(Cl)c4)c(=O)n3C)n2C)C1` [Example 258, (±)-(cis)-ethyl 3-(1-(3,4-dichlorobenzyl)-3,7-dimethyl-2,6-dioxo-2,3,6,7-tetrahydro-1H-purin-8-ylamino)cyclobutanecarboxylate], for which the half-inhibitory concentration (IC50) fell in the range of 10 to 1000 nM.

Molecule `CN(C(=O)CCc1nccc(Nc2nc3c(c(=O)n(Cc4cc5c(Cl)cccc5[nH]4)c(=O)n3C)n2C)n1)C1CC1` [Example 414, 3-(4-(1-((4-chloro-1H-indol-2-yl)methyl)-3,7-dimethyl-2,6-dioxo-2,3,6,7-tetrahydro-1H-purin-8-ylamino)pyrimidin-2-yl)-N-cyclopropyl-N-methylpropanamide] registered an IC50 of 10 to 1000 nM.

Take `Cc1ccc2[nH]c(Cn3c(=O)c4c(nc(Nc5ccncn5)n4C)n(C)c3=O)cc2c1` [Example 205, 3,7-dimethyl-1-((5-methyl-1H-indol-2-yl)methyl)-8-(pyrimidin-4-ylamino)-1H-purine-2,6(3H,7H)-dione]: the IC50 fell in the range of 10 to 1000 nM.

The molecule `Cc1ccc2cc(Cn3c(=O)c4c(nc(Nc5ccncc5)n4C)n(C)c3=O)[nH]c2c1` [Example 326, 3,7-dimethyl-1-((6-methyl-1H-indol-2-yl)methyl)-8-(pyridin-4-ylamino)-1H-purine-2,6(3H,7H)-dione] came in with a half-maximal inhibitory concentration (IC50) of 10 to 1000 nM.

Regarding `Cn1c(NC[C@H](O)CO)nc2c1c(=O)n(Cc1ccc(Cl)cc1)c(=O)n2C` [Example 16, 1-[(4-chlorophenyl)methyl]-8-{[(2S)-2,3-dihydroxypropyl]amino}-3,7-dimethyl-2,3,6,7-tetrahydro-1H-purine-2,6-dione], the half-maximal inhibitory concentration (IC50) was > 10000 nM.

`CCc1cccc2cc(Cn3c(=O)c4c(nc(C(C)N)n4C)n(C)c3=O)ccc12` (stereo not drawn) [Example 463, 8-(1-aminoethyl)-1-((5-ethylnaphthalen-2-yl)methyl)-3,7-dimethyl-1H-purine-2,6(3H,7H)-dione] gave a 50% inhibitory concentration (IC50) of 10 to 1000 nM.

Take `Cn1c(Nc2ccc(F)nc2)nc2c1c(=O)n(Cc1cc3c(Cl)cccc3[nH]1)c(=O)n2C` [Example 384, 1-((4-chloro-1H-indol-2-yl)methyl)-8-(6-fluoropyridin-3-ylamino)-3,7-dimethyl-1H-purine-2,6(3H,7H)-dione]: the 50% inhibitory concentration (IC50) is 10 to 1000 nM.

For the molecule `Cn1c(NC2CC2)nc2c1c(=O)n(Cc1ccc(Cl)c(Cl)c1)c(=O)n2C` [Example 271, 8-(cyclopropylamino)-1-[(3,4-dichlorophenyl)methyl]-3,7-dimethyl-purine-2,6-dione], the IC50 lay in the range of 10 to 1000 nM.

Turning to `Cn1c(N[C@H]2CC[C@@H](O)C2)nc2c1c(=O)n(Cc1cc(-c3ccccc3)n[nH]1)c(=O)n2C` (racemic) [Example 180, (±)-8-((cis)-3-hydroxycyclopentylamino)-3,7-dimethyl-1-((3-phenyl-1H-pyrazol-5-yl)methyl)-1H-purine-2,6(3H,7H)-dione], the IC50 is > 10000 nM.

In the case of `CCC(N)c1nc2c(c(=O)n(Cc3cc4c(Cl)cccc4[nH]3)c(=O)n2C)n1C` (stereo not drawn) [Example 434, 8-(1-aminopropyl)-1-[(4-chloro-1H-indol-2-yl)methyl]-3,7-dimethyl-purine-2,6-dione], the half-maximal inhibitory concentration (IC50) lay in the range of 10 to 1000 nM.

Molecule `Cn1c(C2CCCCN2)nc2c1c(=O)n(Cc1cc3c(Cl)cccc3[nH]1)c(=O)n2C` (stereo not drawn) [Example 430, 1-((4-chloro-1H-indol-2-yl)methyl)-3,7-dimethyl-8-(piperidin-2-yl)-3,7-dihydro-1H-purine-2,6-dione] came in with a 50% inhibitory concentration (IC50) of 10 to 1000 nM.

Molecule `Cn1c(N2CC(O)C2)nc2c1c(=O)n(Cc1cc3ccccc3[nH]1)c(=O)n2C` [Example 192, 1-((1H-indol-2-yl)methyl)-8-(3-hydroxyazetidin-1-yl)-3,7-dimethyl-1H-purine-2,6(3H,7H)-dione] registered an IC50 of 1000 to 5000 nM.

For the molecule `Cn1c(=O)n(Cc2ccc(Cl)c(Cl)c2)c(=O)c2[nH]c(NCCCO)nc21` [Example 90, 1-[(3,4-dichlorophenyl)methyl]-8-[(3-hydroxypropyl)amino]-3-methyl-2,3,6,7-tetrahydro-1H-purine-2,6-dione], the IC50 lay within 1000 to 5000 nM.

`Cn1c(N[C@H]2CC[C@H](CO)C2)nc2c1c(=O)n(Cc1ccc(Cl)c(Cl)c1)c(=O)n2C` (racemic) [Example 325, (±)-1-(3,4-dichlorobenzyl)-8-((trans)-3-(hydroxymethyl)cyclopentylamino)-3,7-dimethyl-1H-purine-2,6(3H,7H)-dione] returned an IC50 of 10 to 1000 nM.
